Tests used:
[1] = system: Symmetric di-Methyl Arginine in Z-138 cells; experiment: Z-138 Methylation Assay (In Cell Western for symmetric di-methyl arginine); format: cell-based; settings: Homo sapiens, 96 hours incubation, symmetric di-methyl arginine normalised to DNA content, read-out: ICW EC50
How it was run: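 Z-138 cells were treated with compound for 96 h at 37 °C, then fixed on poly-D-lysine plates. Symmetric di-methyl arginine was detected by In-Cell Western (800 nm) with DRAQ5 DNA normalisation (700 nm). Percent inhibition used DMSO and 3 μM reference-compound controls; IC50 curves came from triplicate wells.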

Z-138 cell line = experiment: Z-138 Proliferation Assay (Cell Titer Glo); format: cell-based; settings: Homo sapiens, 120 h; Z-138 cells, 5 days incubation, ATP (Cell Titer Glo)
How it was run: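 Z-138 cells in RPMI with 10% FBS exposed 5 days at 37 °C to nine-point 3-fold dilutions, top 20 μM final, 0.2% DMSO, triplicate. ATP-based CellTiter-Glo luminescence; IC50 from 4-parameter fit of normalized curves.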

Compound | EC50 [1] [µM] | EC50 (Z-138 cell line) [µM]
O=C(COc1cccc2cccnc12)NCC(O)CN1CCc2ccsc2C1 (stereo not drawn) [Compound 1-5, N-(2-hydroxy-3-{4H,5H,6H,7H-thieno[2,3-c]pyridin-6-yl}propyl)-2-(quinolin-8-yloxy)acetamide] | 0.101 to 1 | > 5
CC(=O)N1CC(Nc2cc(C(=O)NC[C@H](O)CN3CCc4c(cnn4C)C3)ncn2)C1 [Compound 3-29] | > 1 | > 5
CC(=O)N1CCC(Nc2cc(C(=O)NC[C@H](O)CN3CCc4ncn(C)c4C3)ncn2)CC1 [Compound 3-30, (S)-6-((1-acetylpiperidin-4-yl)amino)-N-(2-hydroxy-3-(3-methyl-6,7-dihydro-3H-imidazo[4,5-c]pyridin-5(4H)-yl)propyl)pyrimidine-4-carboxamide] | > 1 | > 5

Source: patent US20170210751A1, “PRMT5 INHIBITORS AND USES THEREOF” (Epizyme, Inc., priority 2014, published 2017)
